The record followed here is ChEMBL document CHEMBL5726443, “Bicyclic sulfonamide compounds as sodium channel inhibitors” (2017).

The target of this test is Sodium channel protein type 9 subunit alpha (Homo sapiens, UniProt Q15858). The experiment in a line: Compound effects were measured on a partially inactivated state of the sodium channel. Cells were clamped to a holding potential yielding 20 to 50% inactivation. To elicit sodium current, channels were activated by pulsing to ⿿10 mV for 20 msec. This voltage protocol was repeated at a rate of 0.1 Hz throughout the experiment.
Sequence of Sodium channel protein type 9 subunit alpha (Q15858 whole entry): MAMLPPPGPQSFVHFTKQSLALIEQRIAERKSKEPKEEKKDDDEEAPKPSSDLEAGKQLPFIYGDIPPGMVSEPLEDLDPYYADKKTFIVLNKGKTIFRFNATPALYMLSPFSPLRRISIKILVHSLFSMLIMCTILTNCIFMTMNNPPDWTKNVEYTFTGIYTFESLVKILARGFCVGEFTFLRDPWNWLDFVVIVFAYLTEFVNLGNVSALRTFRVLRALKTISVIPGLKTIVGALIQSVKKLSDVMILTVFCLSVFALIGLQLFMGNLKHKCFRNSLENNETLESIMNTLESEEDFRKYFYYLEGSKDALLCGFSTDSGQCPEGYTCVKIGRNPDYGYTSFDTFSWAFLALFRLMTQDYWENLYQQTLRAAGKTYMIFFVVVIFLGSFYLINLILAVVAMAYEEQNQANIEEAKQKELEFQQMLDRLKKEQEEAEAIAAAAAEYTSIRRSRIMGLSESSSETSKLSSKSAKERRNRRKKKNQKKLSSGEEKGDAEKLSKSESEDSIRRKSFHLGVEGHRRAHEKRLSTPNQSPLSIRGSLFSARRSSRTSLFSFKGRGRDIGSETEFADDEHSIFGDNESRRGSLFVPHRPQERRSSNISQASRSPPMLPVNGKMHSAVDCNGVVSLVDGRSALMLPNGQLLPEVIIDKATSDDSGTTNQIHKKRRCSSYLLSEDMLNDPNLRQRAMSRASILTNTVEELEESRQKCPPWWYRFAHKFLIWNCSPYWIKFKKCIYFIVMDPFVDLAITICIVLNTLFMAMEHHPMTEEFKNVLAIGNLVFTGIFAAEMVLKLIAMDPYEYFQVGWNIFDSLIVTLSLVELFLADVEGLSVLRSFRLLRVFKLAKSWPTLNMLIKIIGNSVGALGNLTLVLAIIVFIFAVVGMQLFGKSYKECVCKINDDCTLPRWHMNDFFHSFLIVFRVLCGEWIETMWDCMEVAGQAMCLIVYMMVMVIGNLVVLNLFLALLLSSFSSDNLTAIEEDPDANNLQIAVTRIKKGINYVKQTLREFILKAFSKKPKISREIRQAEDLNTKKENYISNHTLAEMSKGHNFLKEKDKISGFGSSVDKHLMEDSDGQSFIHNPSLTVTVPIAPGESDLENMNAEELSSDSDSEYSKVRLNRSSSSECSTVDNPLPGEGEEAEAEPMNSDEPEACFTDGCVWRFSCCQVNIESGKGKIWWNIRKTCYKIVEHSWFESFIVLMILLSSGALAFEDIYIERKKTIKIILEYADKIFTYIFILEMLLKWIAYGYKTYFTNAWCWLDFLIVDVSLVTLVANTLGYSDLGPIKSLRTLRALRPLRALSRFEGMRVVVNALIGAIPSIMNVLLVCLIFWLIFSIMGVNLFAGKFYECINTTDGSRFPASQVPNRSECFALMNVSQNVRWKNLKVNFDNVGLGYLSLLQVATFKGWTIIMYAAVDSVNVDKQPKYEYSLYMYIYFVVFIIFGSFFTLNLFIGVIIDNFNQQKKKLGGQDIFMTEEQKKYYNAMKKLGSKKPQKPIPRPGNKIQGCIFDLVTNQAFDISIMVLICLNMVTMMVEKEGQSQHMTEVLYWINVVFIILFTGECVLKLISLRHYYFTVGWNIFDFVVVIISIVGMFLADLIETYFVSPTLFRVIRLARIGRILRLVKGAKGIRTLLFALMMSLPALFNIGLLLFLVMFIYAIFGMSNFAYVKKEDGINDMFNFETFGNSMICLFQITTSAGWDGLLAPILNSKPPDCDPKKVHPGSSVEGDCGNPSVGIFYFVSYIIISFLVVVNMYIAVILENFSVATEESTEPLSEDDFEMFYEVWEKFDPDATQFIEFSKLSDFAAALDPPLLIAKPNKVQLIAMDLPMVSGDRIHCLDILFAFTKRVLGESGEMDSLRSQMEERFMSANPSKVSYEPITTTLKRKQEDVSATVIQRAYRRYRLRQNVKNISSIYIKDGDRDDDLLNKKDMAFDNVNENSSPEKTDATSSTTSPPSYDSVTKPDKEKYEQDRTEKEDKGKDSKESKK
Regarding `COc1cc(-c2ccc(F)c(C)n2)c(C)cc1-c1ncnc2cc(S(=O)(=O)Nc3ccon3)ccc12`, it took 445 nM to reach half-maximal inhibition (IC50).

`COc1cc(-c2ccc(F)c(Cl)c2)c(C#N)cc1-c1nccc2cc(S(=O)(=O)Nc3nncs3)ccc12` showed an IC50 of 9.2 nM.

Turning to `COc1cc(-c2ccc(Cl)c(F)c2)c(C#N)cc1-c1nccc2cc(S(=O)(=O)Nc3nncs3)ccc12`, the IC50 was determined as 18.6 nM. In the case of `COc1cc(-c2cccc(Cl)c2)c(F)cc1-c1ncnc2cc(S(=O)(=O)Nc3ncc(F)cn3)ccc12`, the midpoint of inhibition, the IC50, lay at 107 nM.

With `COc1cc(-c2cccc(C(F)(F)F)c2)c(C)cc1-c1nccc2cc(S(=O)(=O)Nc3ccon3)ccc12`, half-maximal inhibition (IC50) was put at 60.9 nM. This IC50 lies about 1.8-fold lower than the previous one.
